“And” between values parts separate entries of the source, which are not always exact repeats. Equal values may be shown once.
Columns and labels:
[1] = system: Bacillus cereus ATCC 11778; test: Verification of tigecycline microbiological activity (agar well diffusion bioassay); assay type: cell-based; settings: for Zone Size, Sample: n = 3
Experimental: Standard Curve Preparation: A stock solution of tigecycline standard powder, at a concentration of 1000 μg/ml, was prepared in normal saline. Dilutions were prepared in normal saline at a concentration range of 4, 2, 1 and 0.5, 0.25, and 0.125 μg/ml for the preparation of the standard curve. The internal standard (1 μg/ml) was also made from stock solution.
Preparation of Inoculum: An overnight trypticase soy agar blood plate culture (incubated at 30° C.) of Bacillus cereus ATCC 11778 was adjusted to a McFarland 0.5 standard in saline. This suspension yields a bacterial density of approximately 10^8 colony forming units (CFU)/ml.
Preparation of Bioassay Agar Plates: The agar medium was prepared by adding nutrient broth (8 g) and agarose (11 g or […]) per liter of distilled water. After autoclaving at 121° C. for 15 minutes, the medium was allowed to equilibrate to a temperature of 48-50° C. for approximately 1 hour in a water bath. The adjusted B. cereus culture was used to inoculate the cooled agar to a final concentration of 1% (1 ml/100 ml). A volume of 100 ml is added to a Nunc bioassay dish and the agar allowed to solidify at room temperature on a level surface. After cooling, wells were cut into the surface of the agar assay plate using a vacuum well cutting device. The standard curve and unknown samples were placed into the wells (50 μl) in a predetermined array with three wells each per concentration. An internal standard was also tested in triplicate. The pulverized bone samples (and standards for that experiment) were overlaid with 1.1% agarose (50 μl) to maintain contact with the seeded agar. The plates were pre-diffused at 4° C. for two hours, then incubated at 30° C. for 18-24 hours.
Determination of antibiotic concentrations in IncRB samples: The diameters of the zones of inhibition for standards and samples were measured using electronic calipers. The concentrations of the standard curve were then plotted on a semilogarithmic scale vs their corresponding zone diameters to give a standard regression curve. The concentrations of the samples and internal standard were determined by comparing the mean zone size of the samples to the zone sizes of the standard curve and their corresponding concentration. A bioassay data analysis program was used to perform the calculations and plots.

[2] = 54-hour autosampler stability of extracted tigecycline from incurred human bone with ascorbic acid; assay type: physicochemical; settings: ascorbic acid added
Experimental: (§1) Stability tests for tigecycline in IncRB reference QC samples or incHB QC samples were conducted in 4 cycles of freeze/thaw for IncRB QC and (3 cycles for IncHB QC of −70° C./22° C.) and in standard bench top (22° C.) stability (4 hours for rat bone and 6 hours for human bone) tests. These tests occurred during sequential extraction from run 1 through run 3. Bench top stability of IncRB reference QC samples (4 hours at room temperature) and incurred human bone sample (6 hours at room temperature), and extracted tigecycline from the IncRB and incurred human reference QC samples in the autosampler at 4° C. were evaluated during the method validation. Autosampler stability of tigecycline in IncRB Group B sample (^14C) was employed as the sample pool because aliquots from IncRB Group A were exhausted from prior testing. Results were plotted as the peak area ratio against time. The 54-hour autosampler stability of incurred human bone was performed by comparing extracted samples injected immediate after extraction (baseline) with the same set of extracted samples re-injected after 54 hours of storage at 4° C., regressed with a standard curve injected immediately after extraction (baseline).

[3] = Stability of tigecycline in incurred rat bone and in extracted rat bone sample; assay type: physicochemical
Experimental: as §1

[4] = Bone Extract (non-neutralized) (pH 1.7), IncRB Group B

SMILES: CN(C)c1cc(NC(=O)CNC(C)(C)C)c(O)c2c1C[C@H]1C[C@H]3[C@H](N(C)C)C(O)=C(C(N)=O)C(=O)[C@@]3(O)C(O)=C1C2=O [tigecycline, Tigecycline]
- Zone Size, Sample minus diluent [1, 4]: 11.8 mm
- Zone Size, Sample [1, 4]: 33.3 mm
- Zone Size, Sample minus diluent ([1]; Neutralized Bone Extract A (pH 7.0)): 0 mm
- Zone Size, Sample ([1]; Neutralized Bone Extract A (pH 7.0), neutralization prior to methanol evaporation): 0 mm
- Zone Size, Sample minus diluent ([1]; Neutralized Bone Extract B (pH 7.0)): 0 mm
- Zone Size, Sample ([1]; Neutralized Bone Extract B (pH 7.0), neutralization after methanol evaporation): 0 mm
- % Difference (54 hours vs initial) ([2]; 54 hours at 4° C.): −0.7%
- Initial Concentration immediately after extraction (replicates) ([2]; incurred human bone): 261 and 258 and 270 and 269 and 218
- Re-injected sample concentration after 54-hour at 4° C. (replicates) ([2]; incurred human bone): 288 and 250 and 227 and 277 and 223
- Initial Concentration immediately after extraction, Mean ([2]; n = 5, incurred human bone): 255
- Re-injected sample concentration after 54-hour at 4° C., Mean ([2]; n = 5, incurred human bone): 253
- Freeze/thaw stability in incurred rat bone ([3]; after 4 cycles of freeze/thaw (−70° C./22° C.)): stable
- Bench top stability in incurred rat bone ([3]; after 4 hours at room temperature): stable
- Stability of extracted tigecycline from IncRB samples ([3]; extracted sample at 4° C., no stabilizing agent): 8.5 h
- Storage stability in incurred rat bone ([3]; stored at −70° C.): at least 5 months
- Re-injection stability of extracted tigecycline ([3]; within 5 hours, no stabilizing agent): 5 re-injections

— patent US20070259439A1, “Determination of antibiotic concentration in bone” (Wyeth, priority 2006, published 2007)
